Results from publication PMC7037732, “Synthesis of Combretastatin A-4 and 3′-Aminocombretastatin A-4 derivatives with Aminoacid Containing Pendants and Study of their Interaction with Tubulin and as Downregulators of the VEGF, hTERT and c-Myc Gene Expression” (Molecules, 2020).
Blank lines part the entries; values can stand above or below the molecule they belong to.

Tests used:
[1] = test system: HT-29 (human colon adenocarcinoma); test: Inhibition of cell proliferation (MTT), HT-29; assay type: cell-based; details: Homo sapiens, 48 h of treatment (footnote), average ±SD of three experiments
[2] = test system: MCF-7 (breast adenocarcinoma); test: Inhibition of cell proliferation (MTT), MCF-7; assay type: cell-based, human; details: Homo sapiens, 48 h of treatment (footnote), average ±SD of three experiments
[3] = test system: A-549 (human pulmonary adenocarcinoma); test: Inhibition of cell proliferation (MTT), A-549; assay type: cell-based; details: 48 h of treatment (footnote), average ±SD of three experiments
In short: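 Antiproliferative activity against A-549 human pulmonary adenocarcinoma cells was measured by MTT assay. Cells were seeded at 25,000/mL in 96-well plates, cultured 24 h, then exposed to compounds at various concentrations. MTT (20 µL, 5 mg·mL^−1) was added for 2 h at 37 °C, formazan dissolved in 200 µL DMSO, and absorbance read at 540 nm. IC50 values came graphically from three independent experiments.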

[4] = test system: HEK-293 (human embryonic kidney cells); test: Inhibition of cell proliferation (MTT), nontumor HEK-293; assay type: cell-based; details: Homo sapiens, 48 h of treatment (footnote), average ±SD of three experiments
[5] = test system: A-549 cells; test: Cell cycle distribution by flow cytometry; assay type: cell-based, human; details: A-549, 24 h; for cells accumulated in the G2/M phase: concentration per compound as in Tables 6 and 7, control 14%
In short: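 A-549 cells were harvested, fixed in cold 70% ethanol (30 min, −20 °C), then stained with 50 µg/mL propidium iodide plus 100 µg/mL RNase A in PBS for 20 min at room temperature in the dark. Flow cytometry used 488 nm excitation and 620 nm emission, giving the percentage of cells in G2/M.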

[6] = test system: A-549 cells; test: Effect on the cellular microtubule network (immunofluorescence); assay type: cell-based, human
Description: The effect on the cellular microtubule network of CA-4 derivatives was studied for compounds 1, 3.7 (L-Thr-OMe), 3.8 (L-Tyr-OMe), 4.2 (L-Val) and 4.3 (L-Leu), which were those accumulating more cells in the G2/M phase. Thus, A-549 cells were incubated for 24 h in the presence of the above compounds and CA-4 at the concentrations indicated in Figure 4.
The effect of some derivatives on the cellular microtubule network were also studied on A-549 cells. The selected compounds were 7.1 (Fmoc-Gly) (0.5 μM), 8.1 (Gly) (2 μM), 8.2 (L-Ala) (3 μM) and 10.1 (D-Val) (40 μM), which were those exerting a higher effect on the cell cycle.
For immunofluorescence microscopy of the microtubule network, 10^6 cells were plated on cover glass and incubated with the different drugs. Cells were then fixed in 3.7% formaldehyde (in PBS pH 7.4) for 20 min at room temperature and permeabilized with PBS-Triton X-100 0.5% for 10 min at room temperature. Direct immunostaining was carried out for 2 h at room temperature with a primary FITC-conjugated anti-α-tubulin antibody (dilution 1:400 in PBS-BSA 1% from a 1 mg/mL solution; monoclonal antibody, clone DM1A; Sigma-Aldrich, Darmstadt, Germany.). Next, cells were incubated for 45 min at room temperature in darkness with secondary Alexa Fluor 488-conjugated antibodies (dilution 1:200 each from 1.5 mg/mL; Molecular Probe, France). Then, cells were washed in PBS and cover glasses were mounted with a drop of ProLong® antifade solution (Invitrogen). The cytoskeleton was imaged by a confocal laser scanning microscope (CLSM) Leica SP5 with a Leica inverted microscope, equipped with a Plan-Apochromat 63× oil immersion objective (NA = 1.4). Each image was recorded with the CLSM’s spectral mode selecting specific domains of the emission spectrum. The FITC fluorophore was excited at 488 nm with an argon laser, and its fluorescence emission was collected between 496 nm and 535 nm.

[7] = test system: purified tubulin; test: Critical concentration (CrC) for the assembly of purified tubulin in GAB; assay type: biochemical; details: compound 27.5 μM, tubulin 25 μM, glycerol (GAB) and GTP assembly buffer; control 7.9 ± 1.2
Description: The effect on the self-assembly of tubulin was determined by measuring the critical concentration (CrC).

[8] = test system: tubulin; test: In vitro tubulin polymerization by turbidimetry (It50); assay type: biochemical; details: turbidimetry at 350 nm, 37 °C; control 16.6 ± 1.0
Description: Figure 3 also includes polymerization curves in the presence of CA-4, AmCA-4 and paclitaxel. This test was also performed using paclitaxel, a microtubule stabilizing agent, as a control for the complete formation of microtubules (see Figure 3).

[9] = Homo sapiens, A549, 48 h, Table 1

SMILES: CCOC(=O)COc1cc(/C=C\c2cc(OC)c(OC)c(OC)c2)ccc1OC [Compound 1, Ethyl (Z)-2-(2-methoxy-5-(3,4,5-trimethoxystyryl)phenoxy)acetate]
- IC50 ([1]; HT-29, 48 h, Table 1): 7 ± 4 µM
- IC50 ([2]; MCF7, 48 h, Table 1): 8 ± 4 µM
- IC50 [3, 9]: < 10 µM
- IC50 ([3]; Table 1): 9 ± 1 µM
- IC50 ([4]; HEK293, 48 h, Table 1): 3.6 ± 0.5 µM
- G0/G1 ([5]; 50 μM): 23 ± 5%
- G2/M ([5]; 50 μM): 55 ± 8%
- S ([5]; 50 μM): 22 ± 4%
- cells accumulated in the G2/M phase [5]: 50–70%
- Effect on the microtubule network ([6]; A-549, 24 h, 50 μM): produce disorganization in the mitotic spindle

- IC50 ([1]; HT-29, Table 1): 33 ± 6 µM
- IC50 ([2]; MCF7, Table 1): 11 ± 5 µM
- IC50 [3, 9]: 38 ± 5 µM
- melting point: 109 to 111 °C
SMILES: COc1ccc(/C=C\c2cc(OC)c(OC)c(OC)c2)cc1OCC(=O)O [Compound 2, (Z)-2-(2-Methoxy-5-(3,4,5-trimethoxystyryl)phenoxy)acetic acid]
- IC50 ([4]; HEK293, Table 1): 12 ± 5 µM
- CrC (critical concentration) [7]: 12.0 ± 0.7 µM

SMILES: COC(=O)[C@@H](NC(=O)COc1cc(/C=C\c2cc(OC)c(OC)c(OC)c2)ccc1OC)C(C)O (some centres unmarked) [Compound 3.7]
- IC50 ([1]; HT-29, 48 h, Table 1): 18 ± 7 µM
- IC50 ([2]; MCF7, 48 h, Table 1): 12 ± 4 µM
- IC50 [3, 9]: 19 ± 1 µM
- IC50 ([4]; HEK293, 48 h, Table 1): 14 ± 2 µM
- CrC (critical concentration) [7]: 10 ± 3 µM
- G0/G1 ([5]; 75 μM): 25 ± 5%
- G2/M ([5]; 75 μM): 57 ± 6%
- S ([5]; 75 μM): 18 ± 1%
- cells accumulated in the G2/M phase [5]: 50–70%
- Effect on the microtubule network ([6]; A-549, 24 h, 75 μM): produce disorganization in the mitotic spindle

SMILES: COC(=O)[C@H](Cc1ccc(O)cc1)NC(=O)COc1cc(/C=C\c2cc(OC)c(OC)c(OC)c2)ccc1OC [Compound 3.8]
- IC50 ([1]; HT-29, 48 h, Table 1): 16 ± 5 µM
- IC50 ([2]; MCF7, 48 h, Table 1): 12 ± 4 µM
- IC50 [3, 9]: 18 ± 1 µM
- IC50 ([4]; HEK293, 48 h, Table 1): 10 ± 2 µM
- G0/G1 ([5]; 75 μM): 17 ± 2%
- G2/M ([5]; 75 μM): 65 ± 1%
- S ([5]; 75 μM): 18 ± 1%
- cells accumulated in the G2/M phase [5]: 50–70%
- Effect on the microtubule network ([6]; A-549, 24 h, 75 μM): produce disorganization in the mitotic spindle

SMILES: COc1ccc(/C=C\c2cc(OC)c(OC)c(OC)c2)cc1OCC(=O)N[C@@H](CC(C)C)C(=O)O [Compound 4.3]
- IC50 ([1]; HT-29, 48 h, Table 1): 15 ± 5 µM
- IC50 ([2]; MCF7, 48 h, Table 1): 16 ± 6 µM
- IC50 [3, 9]: 14 ± 2 µM
- IC50 ([4]; HEK293, 48 h, Table 1): 9 ± 2 µM
- CrC (critical concentration) [7]: 8 ± 3 µM
- G0/G1 ([5]; 75 μM): 22 ± 6%
- G2/M ([5]; 75 μM): 63 ± 5%
- S ([5]; 75 μM): 15 ± 2%
- cells accumulated in the G2/M phase [5]: 50–70%
- Effect on the microtubule network ([6]; A-549, 24 h, 50 μM): produce disorganization in the mitotic spindle

- IC50 ([1]; HT-29, Table 1): 54 ± 9 µM
- IC50 ([2]; MCF7, Table 1): 45 ± 4 µM
- IC50 [3, 9]: 100 ± 20 µM
SMILES: COc1ccc(/C=C\c2cc(OC)c(OC)c(OC)c2)cc1OCC(=O)N[C@@H](Cc1ccccc1)C(=O)O [Compound 4.4]
- IC50 ([4]; HEK293, Table 1): 47 ± 3 µM
- CrC (critical concentration) [7]: 11.4 ± 0.7 µM
- Effect on the microtubule network ([6]; A-549, 24 h, 50 μM): produce disorganization in the mitotic spindle

SMILES: COc1ccc(/C=C\c2cc(OC)c(OC)c(OC)c2)cc1NC(=O)[C@H](N)C(C)C [Compound 10.1]
- IC50 ([1]; HT-29, 48 h, Table 2): 4.8 ± 0.6 µM
- IC50 ([2]; MCF7, 48 h, Table 2): 4.7 ± 0.7 µM
- IC50 ([3]; Homo sapiens, A549, 48 h, Table 2): 9.9 ± 1.3 µM
- IC50 ([4]; HEK293, 48 h, Table 2): 2.4 ± 0.3 µM
- CrC (critical concentration) [7]: 12.8 ± 0.3 µM
- It50 (time required to reach 50% of the polymerization) [8]: 17.1 ± 1.3 min
- G0/G1 ([5]; 40 µM): 26 ± 2%
- G2/M ([5]; 40 µM): 60 ± 1%
- S ([5]; 40 µM): 14 ± 1%
- Effect on the microtubule network ([6]; A-549, 0.5 μM): much less active
- Effect on the microtubule network ([6]; A-549, 40 μM): almost total depolymerization of the microtubule network
